This is an account of results in US12582656B2, “Nucleotide analogues” (R.G.C.C. Holdings AG, priority 2020, dated 2026).

In one experiment the test system is Polymerase. As to the kind of experiment: SYBR Green qPCR with modified adenosine analogues added, Ct measured. As to conditions: for effect on amplification of the template (qPCR): dose-dependent, efficacy higher for phosphate than hydroxyl at same concentration. In kind it is biochemical. The procedure: In a second set of experiments, the modified adenosine analogues were added in a SYBR Green qPCR mix, and reactions performed using the same template and primers as above. The Ct (Threshold Cycle) parameter was measured for each condition. The Ct is the cycle number at which the fluorescence generated within a reaction crosses the fluorescence threshold. The higher the Ct, the lower the amount of product (or lower expression).
At the same concentration, the efficacy of inhibition of amplification was higher for phosphate than hydroxyl.

The target of experiment [1] is SARS-COV-2 polymerase NSP12 (Severe acute respiratory syndrome coronavirus 2, UniProt P0DTD1). As to the kind of experiment: SARS-CoV-2 RNA polymerization assay with RdRp catalytic domain, PAGE gel (FIG. 2). As to conditions: rATP split 50:50 with compound, 37° C. for 2 h. Format: biochemical.
Setting [2] is: gene 18SrRNA, substance 0.075 mM (Final).
[3] abbreviates: gene 18SrRNA, substance 0.15 mM (Final).
The mark [4] stands for this setting: gene 18SrRNA, substance 0.3 mM (Final).
[5] abbreviates: gene ACTB, substance 0.075 mM (Final).
The mark [6] stands for this setting: gene ACTB, substance 0.15 mM (Final).
Where [7] appears, read: gene ACTB, substance 0.3 mM (Final).

Consider `Nc1ncnc2c1ncn2-c1nc(O)c2ccccc2n1` [Compound A, 2-(6-amino-9H-purin-9-yl)quinazolin-4-ol], for which the “effect on amplification of the template (qPCR)” value in the experiment on Polymerase is listed as “decrease of the amplification of the template”. Further, the “Ct Mean” value with Polymerase (setting [2]) was 12.88; in the experiment on Polymerase (setting [3]), 13.43; in the experiment with Polymerase (setting [4]), 14.84; in the experiment with Polymerase (setting [5]), 20.08; with Polymerase (setting [6]), 20.55; with Polymerase (setting [7]), 21.14. The “in vitro replication of the SARS-CoV-2 RNA via the SARS-CoV-2 RNA polymerase” value (shortened to “in vitro replication”) in experiment [1] is recorded as “inhibits”.
`Nc1ncnc2c1ncn2-c1nc(O)c2ccc(F)cc2n1` [Compound B, 2-(6-amino-9H-purin-9-yl)-7-fluoro-quinazolin-4-ol]: the “in vitro replication” value in experiment [1] is on record as “inhibits”.
For the compound `Nc1ncnc2c1ncn2-c1nc(OP(=O)(O)O)c2ccccc2n1` [Compound C, 2-(6-amino-9H-purin-9-yl)quinazolin-4-yl dihydrogen phosphate], the “effect on amplification of the template (qPCR)” value with Polymerase is reported as “decrease of the amplification of the template”. Also, the “Ct Mean” value with Polymerase (setting [2]) was found to be 12.78; in the experiment with Polymerase (setting [3]) it was 13.70; in the experiment on Polymerase (setting [4]), 15.98; in the experiment with Polymerase (setting [5]) it was 20.15; in the experiment with Polymerase (setting [6]), 20.91; in the experiment on Polymerase (setting [7]) it was 21.82. For the same compound, the “in vitro replication” value in experiment [1] was “inhibits”.
Take `Nc1ncnc2c1ncn2C1OC(COP(=O)(O)OP(=O)(O)OP(=O)(O)O)CC1O.[Na]` (stereo not drawn) [commercial inhibitor, Cordycepin 5′-triphosphate sodium salt, reference compound]: the “in vitro replication” value in experiment [1] is given as “polymerization blocked”.
